Data on 17 compounds can be found in patent US20040097594A1 (priority 1998, published 2004).

One test has as its system HIV-1 (strain IIIB). Kind of test: microbe, parasite or virus in culture. The class given is cell-based. Particulars: lower line of each compound's entry, read-out: IC50 (MT-4 cells).
A further test has as its target HIV-1 protease (Human immunodeficiency virus type 1 group M subtype B, UniProt P04585). In words: biochemical. Particulars: HIV-1 protease; upper line of each compound's entry; read-out: Ki (enzyme).
Setting [1] is: Human immunodeficiency virus 1, 120 h, MT4 cells infected with HIV-1 strain IIIB, 5 days.
[2] abbreviates: MT4 cells infected with HIV-1 strain IIIB, 5 days.

Where two headings read alike, the source gives them in different places.

Turning to `CC(C)ON(C[C@@H](O)[C@H](Cc1ccccc1)NC(=O)O[C@H]1CCOC1)S(=O)(=O)c1ccc2[nH]c(=O)[nH]c2c1` [Compound 62, (3S)tetrahydro-3-furanyl N-((1S,2R)-1-benzyl-2-hydroxy-3-isopropoxy[(2-oxo-2,3-dihydro-1H-1,3-benzimidazol-5-yl)sulfonyl]aminopropyl)carbamate], the IC50 in the test with HIV-1 (strain IIIB) (setting [1]) was over 1000 nM. Besides, at HIV-1 protease, the Ki lay in the range of 1 to 10 nM.

Take `COCOc1ccc(S(=O)(=O)N(C[C@@H](O)[C@H](Cc2ccccc2)NC(=O)OC(C)(C)C)OC2CCCC2)cc1` [Compound 109, tert-butyl N-((1S,2R)-1-benzyl-3-(cyclopentyloxy)[(4-methoxymethoxyphenyl)sulfonyl]amino-2-hydroxypropyl)carbamate]: the IC50 with HIV-1 (strain IIIB) (setting [1]) was at least 100 nM. For the same compound, the Ki on HIV-1 protease was in the range of 10 to 100 nM. Consider `CC(=O)NCCNc1cccc(S(=O)(=O)N(CC(O)C(Cc2ccccc2)NC(=O)OC2COC3OCCC23)OC2CCCC2)c1` [Compound 84, (3R,3aS,6aR)hexahydrofuro[2,3-b]furan-3-yl N-(1S,2R)-3-[[(3-[2-(acetylamino)ethyl]aminophenyl)sulfonyl](cyclopentyloxy)amino]-1-benzyl-2-hydroxypropylcarbamate and (3S,3aR,6aS)hexahydrofuro[2,3-b]furan-3-yl N-(1S,2R)-3-[[(3-[2-(acetylamino)ethyl]aminophenyl)sulfonyl](cyclopentyloxy)amino]-1-benzyl-2-hydroxypropylcarbamate], for which the Ki at HIV-1 protease is under 1 nM.

On to `NC(=O)CNc1cccc(S(=O)(=O)N(CC(O)C(Cc2ccccc2)NC(=O)OC2COC3OCCC23)OC2CCCC2)c1` [Compound 85, (3R,3aS,6aR)hexahydrofuro[2,3-b]furan-3-yl N-(1S,2R)-3-[(3-[(2-amino-2-oxoethyl)amino]phenylsulfonyl)(cyclopentyloxy)amino]-1-benzyl-2-hydroxypropylcarbamate and (3S,3aR,6aS)hexahydrofuro[2,3-b]furan-3-yl N-(1S,2R)-3-[(3[(2-amino-2-oxoethyl)amino]phenylsulfonyl) (cyclopentyloxy)amino]-1-benzyl-2-hydroxypropylcarbamate], for which, on HIV-1 protease, the Ki is under 1 nM. As for `O=C(N[C@@H](Cc1ccccc1)[C@H](O)CN(OC1CCCC1)S(=O)(=O)c1ccc(O)cc1)O[C@H]1CO[C@H]2OCC[C@H]21` [Compound 41, (3R,3aS,6aR)hexahydrofuro[2,3-b]furan-3-yl N-((1S,2R)-1-benzyl-3-(cyclopentyloxy)[(4-hydroxyphenyl)sulfonyl]amino-2-hydroxypropyl)carbamate], the IC50 in the test with HIV-1 (strain IIIB) ([…]) was at most 100 nM. For `COc1cc(C(=O)Nc2nc3cc(S(=O)(=O)N(C[C@@H](O)[C@H](Cc4ccccc4)NC(=O)OC(C)(C)C)OC4CCCC4)ccc3[nH]2)cc(OC)c1OC` [Compound 12, Tert-butyl N-(1S,2R)-1-benzyl-3-[(cyclopentyloxy)(2-[(3,4,5-trimethoxyphenyl-carbonyl)amino]-1H-benzimidazol-5-ylsulfonyl)amino]-2-hydroxypropylcarbamate], the Ki on HIV-1 protease was over 10 nM. On the same count and under the same terms, under `O=C(N[C@@H](Cc1ccccc1)[C@H](O)CN(OC1CCCC1)S(=O)(=O)c1ccc(OCCO)cc1)O[C@H]1CO[C@H]2OCC[C@H]21` [Compound 42, (3R,3aS,6aR)hexahydrofuro[2,3-b]furan-3-yl N-[(1S,2R)-1-benzyl-3-((cyclopentyloxy)[4-(2-hydroxyethoxy)phenyl]sulfonylamino)-2-hydroxypropyl]carbamate] stands under 1 nM.

Regarding `CN(C)c1cccc(S(=O)(=O)N(CC(O)C(Cc2ccccc2)NC(=O)OC2COC3OCCC23)OC2CCCC2)c1` [Compound 43, (3R,3aS,6aR)hexahydrofuro[2,3-b]furan-3-yl N-(1S,2R)-3-[[(3-N,N-dimethylaminophenyl)sulfonyl)(cyclopentyloxy)amino)-1-benzyl-2-hydroxypropylcarbamate], at HIV-1 protease, the Ki was under 1 nM. Take `O=C(N[C@@H](Cc1ccccc1)[C@H](O)CN(OC1CCCC1)S(=O)(=O)c1ccc2[nH]nnc2c1)OC1COCOC1` [Compound 92, 1,3-Dioxan-5-yl N-(1S,2R)-1-benzyl-3-[(cyclopentyloxy)(benzotriazole-5-ylsulfonyl)amino]-2-hydroxypropylcarbamate]: on HIV-1 protease, the Ki was under 1 nM.

In the case of `CC(C)ON(C[C@@H](O)[C@H](Cc1ccccc1)NC(=O)O[C@H]1CCOC1)S(=O)(=O)c1ccc2[nH]cnc2c1` [Compound 63, (3S)tetrahydro-3-furanyl N-(1S,2R)-3-[(1H-1,3-benzimidazol-5-ylsulfonyl)(isopropoxy)amino]-1-benzyl-2-hydroxypropylcarbamate], on HIV-1 protease, the Ki lay in the range of 1 to 10 nM.

`COc1ccc(S(=O)(=O)N(C[C@@H](O)[C@H](Cc2ccccc2)NC(=O)OC(C)(C)C)OC(C)CCC#N)cc1` (stereo partly shown) [Compound 152, tert-butyl 1-benzyl-3-{(3-cyano-1-methylpropoxy)[(4-methoxyphenyl)sulfonyl]amino}-2-hydroxypropylcarbamate]: the IC50 in the test with HIV-1 (strain IIIB) (setting [2]) fell in the range of 500 to 1000 nM. With `O=C(N[C@@H](Cc1ccccc1)[C@H](O)CN(OC1CCCC1)S(=O)(=O)c1ccc(OCCN2CCOCC2)cc1)O[C@H]1CO[C@H]2OCC[C@H]21` [Compound 98, (3R,3aS,6aR)hexahydrofuro[2,3-b]furan-3-yl N-[(1S,2R)-1-benzyl-3-((cyclopentyloxy)[4-(2-morpholinoethoxy)phenyl]sulfonylamino)-2-hydroxypropyl]carbamate], the Ki on HIV-1 protease is under 1 nM.

On to `COC(=O)CC(=O)Nc1nc2cc(S(=O)(=O)N(C[C@@H](O)[C@H](Cc3ccccc3)NC(=O)OC(C)(C)C)OC3CCCC3)ccc2[nH]1` [Compound 13, Tert-butyl N-(1S,2R)-1-benzyl-3-[(cyclopentyloxy)(2-[(methyl3-oxopropionate)amino]-1H-benzimidazol-5-ylsulfonyl)amino]-2-hydroxypropylcarbamate], for which, on HIV-1 protease, the Ki fell in the range of 10 to 100 nM. `CS(=O)(=O)Nc1nc2cc(S(=O)(=O)N(C[C@@H](O)[C@H](Cc3ccccc3)NC(=O)OC3COCOC3)OC3CCCC3)ccc2[nH]1` [Compound 132, 1,3-Dioxan-5-yl-N-((1S,2R)-1-benzyl-3-(cyclopentyloxy)(2-[(methylsulfonyl)amino)benzimidazol-5-ylsulfonyl)amino-2-hydroxypropyl)carbamate]: the IC50 in the test with HIV-1 (strain IIIB) (setting [2]) is at most 100 nM. As to `O=C(N[C@@H](Cc1ccccc1)[C@H](O)CN(OC1CCCC1)S(=O)(=O)c1cccc(OCCN2CCOCC2)c1)O[C@H]1CO[C@H]2OCC[C@H]21` [Compound 99, (3R,3aS,6aR)hexahydrofuro[2,3-b]furan-3-yl N-[(1S, 2R)-1-benzyl-3-((cyclopentyloxy)[3-(2-morpholinoethoxy)phenyl]sulfonylamino)-2-hydroxypropyl]carbamate], the Ki at HIV-1 protease is under 1 nM.

Turning to `Nc1ccc(S(=O)(=O)N(CC(O)C(Cc2ccccc2)NC(=O)OC2COC3OCCC23)OC2CCCC2)cc1` [Example 172, (3S,3aR,6aS)hexahydrofuro[2,3-b]furan-3-yl N-(1S,2R)-3-[[(4-aminophenyl)sulfonyl](cyclopentyloxy)amino]-1-benzyl-2-hydroxypropyl carbamate], the IC50 in the test with HIV-1 (strain IIIB) (setting [2]) is at most 100 nM.

Consider `O=C(NC(Cc1ccccc1)C(O)CN(OC1CCCC1)S(=O)(=O)c1ccc2[nH]nnc2c1)OC1COC2OCCC12` [Compound 91, (3aS,6aR)Hexahydrofuro[2,3-b]furan-3-yl N-(1S,2R)-1-benzyl-3-[(cyclopentyloxy)(benzotriazole-5-ylsulfonyl)amino]-2-hydroxypropylcarbamate], for which the Ki on HIV-1 protease was under 1 nM.

The IC50 is the concentration that gives 50% inhibition. In general, Ki refers to a measure of affinity in units of concentration, obtained from inhibition or displacement.
